ChEMBL document CHEMBL6177948, “Discovery of potential Leonurine-based therapeutic lead MJ210 attenuates Parkinson's disease pathogenesis via NF-κB and MAPK pathways: Mechanistic insights from in vitro and in vivo rotenone models” (Eur J Med Chem, 2025)
Active and inactive are the calls of the source. No cut-off for these calls is given here.

Experiments:
Rattus norvegicus [1] = experiment: Anti-inflammatory activity in rotenone-induced male Wistar rat model assessed as reduction in COX2 expression level in substantia nigra at 5 mg/kg, ip pretreated with compound every alternative days followed by rotenone addition and measured after 42 days by ELISA; assay type: functional, organism-based; details: time 42.0 day
Rattus norvegicus [2] = experiment: Anti-inflammatory activity in rotenone-induced male Wistar rat model assessed as reduction in COX2 expression level in striatum at 5 mg/kg, ip pretreated with compound every alternative days followed by rotenone addition and measured after 42 days by ELISA; assay type: functional, organism-based; details: time 42.0 day
Rattus norvegicus [3] = experiment: Anti-parkinson activity in rotenone-induced neurodegeneration in male Wistar rat model assessed as reduced edema in cortex at 5 mg/kg, ip pretreated with compound every alternative days followed by rotenone addition and measured after 42 days by H and E staining based analysis; assay type: functional, organism-based; details: time 42.0 day
Rattus norvegicus [4] = experiment: Anti-inflammatory activity in rotenone-induced male Wistar rat model assessed as reduction in PGE2 expression level in substantia nigra at 5 mg/kg, ip pretreated with compound every alternative days followed by rotenone addition and measured after 42 days by ELISA; assay type: functional, organism-based; details: time 42.0 day
SH-SY5Y [5] = experiment: Anti-inflammatory activity against rotenone-induced human SH-SY5Y cells assessed as reduction in IL-6 mRNA expression level by RT-qPCR analysis; assay type: functional, cell-based
[6] = Toxicity in male Wistar rat assessed as change in spleen morphology at 1 to 10 mg/kg by H and E staining based analysis; assay type: organism-based; details: in vivo, dose 1-10 mg/kg
Rattus norvegicus [7] = experiment: Improvement of motor dysfunction in rotenone-induced male Wistar rat model assessed as reduction in number of falls at 5 mg/kg, ip pretreated with compound every alternative days followed by rotenone addition and measured after 42 days by rotarod test; assay type: functional, organism-based; details: time 42.0 day
SH-SY5Y [8] = experiment: Neuroprotective activity against rotenone-induced cytotoxicity in human SH-SY5Y cells assessed as increase in green fluorescence at 5 uM by Calcein-AM and PI staining based fluorescence microscopy analysis; assay type: functional, cell-based
Rattus norvegicus [9] = experiment: (§1) Anti-parkinson activity in rotenone-induced neurodegeneration in male Wistar rat model assessed as reduction in pyknotic neurons in striatum at 5 mg/kg, ip pretreated with compound every alternative days followed by rotenone addition and measured after 42 days by Nissl staining based analysis; assay type: functional, organism-based; details: time 42.0 day
Rattus norvegicus [10] = experiment: In vivo inhibition of MAPK signaling pathway in rotenone-induced parkinson disease male Wistar rat model assessed as reduction in JNK phosphorylation level in substantia nigra at 5 mg/kg, ip pretreated with compound every alternative days followed by rotenone addition and measured after 42 days by Western blotting analysis; assay type: functional, organism-based; details: time 42.0 day
SH-SY5Y [11] = experiment: (§2) Reversal of rotenone-induced mitochondrial membrane depolarization in human SH-SY5Y cells assessed as increase in aggregates fluorescence intensity at 5 uM preincubated with compound for 24 hrs followed by rotenone addition and measured after 24 hrs by JC-10 based fluorescence microscopic analysis; assay type: functional, cell-based; details: time 48.0 hrs
SH-SY5Y [12] = experiment: Anti-inflammatory activity in rotenone-induced human SH-SY5Y cells assessed as reduction in IL-6 expression by Western blotting analysis; assay type: functional, cell-based
SH-SY5Y [13] = experiment: Inhibition of MAPK signaling pathway in rotenone-induced human SH-SY5Y cells assessed as reduction in ERK1/2 phosphorylation level by ELISA; assay type: cell-based
Rattus norvegicus [14] = experiment: Anti-inflammatory activity in rotenone-induced male Wistar rat model assessed as reduction in IL-1beta expression level in striatum at 5 mg/kg, ip pretreated with compound every alternative days followed by rotenone addition and measured after 42 days by ELISA; assay type: functional, organism-based; details: time 42.0 day
Rattus norvegicus [15] = experiment: Anti-parkinson activity in rotenone-induced neurodegeneration in male Wistar rat model assessed as decrease count of pyknotic cells in cortex at 5 mg/kg, ip pretreated with compound every alternative days followed by rotenone addition and measured after 42 days by H and E staining based analysis; assay type: functional, organism-based; details: time 42.0 day
SH-SY5Y [16] = experiment: Anti-inflammatory activity against rotenone-induced human SH-SY5Y cells assessed as reduction in CoX-2 mRNA expression level by RT-qPCR analysis; assay type: functional, cell-based
SH-SY5Y [17] = experiment: Neuroprotective activity against rotenone-induced ROS formation in human SH-SY5Y cells assessed as reduction in ROS level by measuring fluorescence intensity at 5 uM preincubated with compound for 24 hrs followed by rotenone addition and measured after 24 hrs by CellRox reagent based fluorescence microscopic analysis; assay type: functional, cell-based; details: time 48.0 hrs
Rattus norvegicus [18] = experiment: Anti-parkinson activity in rotenone-induced male Wistar rat assessed as increase in TH positive fiber density in […] at 5 mg/kg, ip pretreated with compound every alternative days followed by rotenone addition and measured after 42 days by immunofluorescence staining based analysis; assay type: functional, organism-based; details: time 42.0 day
Rattus norvegicus [19] = experiment: Anti-parkinson activity in rotenone-induced male Wistar rat model assessed as reduction in climbing time at 5 mg/kg, ip pretreated with compound every alternative days followed by rotenone addition and measured after 42 days by pole test; assay type: functional, organism-based; details: time 42.0 day
SH-SY5Y [20] = experiment: Neuroprotective activity against rotenone-induced mitochondrial ROS generation in human SH-SY5Y cells assessed as decrease in ROS level at 5 uM preincubated with compound for 24 hrs followed by rotenone addition and measured after 24 hrs by MitoSOX red staining based fluorescence microscopic analysis; assay type: functional, cell-based; details: time 48.0 hrs
Rattus norvegicus [21] = experiment: Anti-parkinson activity in rotenone-induced male Wistar rat model assessed as increase TH expression in striatum at 5 mg/kg, ip pretreated with compound every alternative days followed by rotenone addition and measured after 42 days by Western blotting analysis; assay type: functional, organism-based; details: time 42.0 day
[22] = Toxicity in male Wistar rat assessed as change in liver morphology at 1 to 10 mg/kg by H and E staining based analysis; assay type: organism-based; details: in vivo, dose 1-10 mg/kg
[23] = Toxicity in male Wistar rat assessed as change in kidney morphology at 1 to 10 mg/kg by H and E staining based analysis; assay type: organism-based; details: in vivo, dose 1-10 mg/kg
Rattus norvegicus [24] = experiment: Anti-parkinson activity in rotenone-induced neurodegeneration in male Wistar rat model assessed as decrease neuronal damage in cortex at 5 mg/kg, ip pretreated with compound every alternative days followed by rotenone addition and measured after 42 days by Nissl staining based analysis; assay type: functional, organism-based; details: time 42.0 day
[25] = Toxicity in male Wistar rat assessed as change in cellular structure of heart at 1 to 10 mg/kg by H and E staining based analysis; assay type: organism-based; details: in vivo, dose 1-10 mg/kg
Rattus norvegicus [26] = experiment: Anti-inflammatory activity in rotenone-induced male Wistar rat model assessed as reduction in phosphorylated NF-kappaB P65 protein expression level in striatum at 5 mg/kg, ip pretreated with compound every alternative days followed by rotenone addition and measured after 42 days by ELISA; assay type: functional, organism-based; details: time 42.0 day
[27] = Toxicity in male Wistar rat assessed as change in heart morphology at 1 to 10 mg/kg by H and E staining based analysis; assay type: organism-based; details: in vivo, dose 1-10 mg/kg
Rattus norvegicus [28] = experiment: Anti-parkinson activity in rotenone-induced neurodegeneration in male Wistar rat model assessed as reduced edema in substantia nigra at 5 mg/kg, ip pretreated with compound every alternative days followed by rotenone addition and measured after 42 days by H and E staining based analysis; assay type: functional, organism-based; details: time 42.0 day
SH-SY5Y [29] = experiment: Anti-apoptotic activity in rotenone-induced human SH-SY5Y cells assessed as reduction in Bax expression by Western blotting analysis; assay type: functional, cell-based
[30] = Drug excretion in male Wistar rat brain at 50 mg/kg, ip measured after 4.25 hrs; assay type: ADME, organism-based; details: in vivo
SH-SY5Y [31] = experiment: Inhibition of MAPK signaling pathway in rotenone-induced human SH-SY5Y cells assessed as reduction in JNK phosphorylation level by ELISA; assay type: cell-based
SH-SY5Y [32] = experiment: as §2, with “JC-10 aggregation by measuring red” for “aggregates”, “fluorescence” for “fluorescence intensity”; assay type: functional, cell-based
[33] = Half life in male Wistar rat at 50 mg/kg, ip measured after 24 hrs; assay type: ADME, organism-based; details: in vivo
Rattus norvegicus [34] = experiment: as §1, with “substantia nigra” for “striatum”; assay type: functional, organism-based; details: time 42.0 day
Rattus norvegicus [35] = experiment: Anti-parkinson activity in rotenone-induced male Wistar rat model assessed as improvement in bradykinesia at 5 mg/kg, ip pretreated with compound every alternative days followed by rotenone addition and measured after 42 days by pole test; assay type: functional, organism-based; details: time 42.0 day

COc1cc(CCC(=O)N2CCCCC2)cc(OC)c1OC(=O)c1ccccn1
Activity (Rattus norvegicus [1]): Active | Activity (Rattus norvegicus [2]): Active | Activity (Rattus norvegicus [3]): Active | Activity (Rattus norvegicus [4]): Active | Activity (SH-SY5Y [5]): Active | Activity [6]: Non-toxic | Activity (Rattus norvegicus [7]): Active | Activity (SH-SY5Y [8]): Active | Activity (Rattus norvegicus [9]): Active | inhibition (Rattus norvegicus [10]): Active | Activity (SH-SY5Y [11]): Active | Activity (SH-SY5Y [12]): Active | inhibition (SH-SY5Y [13]): Active | Activity (Rattus norvegicus [14]): Active | Activity (Rattus norvegicus [15]): Active | Activity (SH-SY5Y [16]): Active | Activity (SH-SY5Y [17]): Active | Activity (Rattus norvegicus [18]): Active | Activity (Rattus norvegicus [19]): Active | Activity (SH-SY5Y [20]): Active | Activity (Rattus norvegicus [21]): Active | Activity [22]: Non-toxic | Activity [23]: Non-toxic | Activity (Rattus norvegicus [24]): Active | Activity [25]: Non-toxic | Activity (Rattus norvegicus [26]): Active | Activity [27]: Non-toxic | Activity (Rattus norvegicus [28]): Active | Activity (SH-SY5Y [29]): Active | Drug excretion [30]: Active | inhibition (SH-SY5Y [31]): Active | Activity (SH-SY5Y [32]): Active | half-life [33]: 8.5 h | Activity (Rattus norvegicus [34]): Active | Activity (Rattus norvegicus [35]): Active
